The target of the assay is T1, Human CXCR4 transfected HEK293 cells (Homo sapiens, UniProt P61073).
T1 construct: expressed in transfected cells; host or cells: HEK293
Description: CXCR4 functional calcium assay (calcium flux FLIPR, antagonism of SDF1 response). Type of assay: cell-based. Conditions: CXCR4 functional activity, antagonism of SDF1 (EC50 concentration), read-out: CXCR4 fKi. In outline:
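Dose-dependent antagonism of the SDF1 response was read by FLIPR as Fluo-4 calcium signal (2 μM dye) in CXCR4-expressing human HEK293 cells, in HBSS with probenecid, BSA and HEPES at pH 7.4 and 37° C. Test compound was given before an EC50-level SDF1 challenge. Curves were then fitted.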
For orientation: A change in cytosolic calcium serves as a functional read-out for many receptors and channels.

T1 sequence (P61073 whole entry): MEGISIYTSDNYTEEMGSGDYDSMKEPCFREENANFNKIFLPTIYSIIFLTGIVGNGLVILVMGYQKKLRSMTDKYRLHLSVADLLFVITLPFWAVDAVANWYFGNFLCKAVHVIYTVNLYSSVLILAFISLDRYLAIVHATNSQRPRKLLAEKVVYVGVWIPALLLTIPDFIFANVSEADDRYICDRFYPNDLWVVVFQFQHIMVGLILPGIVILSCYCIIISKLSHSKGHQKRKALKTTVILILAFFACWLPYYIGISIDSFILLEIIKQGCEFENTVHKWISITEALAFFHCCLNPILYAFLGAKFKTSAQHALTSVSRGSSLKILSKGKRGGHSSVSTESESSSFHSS

In the case of `C[C@H](N1CCC(N2CCCN(c3cccc(C(=O)Nc4ccncc4)n3)CC2)CC1)C(F)(F)F` [Example 82, N-(Pyridin-4-yl)-6-(4-{1-[(2S)-1,1,1-trifluoropropan-2-yl]piperidin-4-yl}-1,4-diazepan-1-yl)pyridine-2-carboxamide], the Ki was < 20 nM.

For the molecule `CCCc1[nH]c(-c2cccc(N3CCCN(C4CCN(C(C)C)CC4)CC3)n2)nc1C` [Example 123, 1-[6-(5-Methyl-4-propyl-1H-imidazol-2-yl)pyridine-2-yl]-4-[1-(propan-2-yl)piperidin-4-yl]-1,4-diazepane], the Ki is < 20 nM. The value for `O=C(NCc1cocn1)c1cccc(N2CCCN(C3CCN(Cc4ccccc4Cl)CC3)CC2)n1` [Example 58, 6-(4-{1-[(2-Chlorophenyl)methyl]piperidin-4-yl}-1,4-diazepan-1-yl)-N-(1,3-oxazol-4-ylmethyl)pyridine-2-carboxamide] was 100 to 500 nM; that for `Cc1cnccc1NC(=O)c1cccc(N2CCCN(C3CCN(C(C)C)CC3)CC2)n1` [Example 88, N-(3-Methylpyridin-4-yl)-6-{4-[1-(propan-2-yl)piperidin-4-yl]-1,4-diazepan-1-yl}pyridine-2-carboxamide] was < 20 nM. The value for `O=C(NCc1cccnc1)c1cccc(N2CCCN(C3CCN(Cc4ccccc4Cl)CC3)CC2)n1` [Example 55, 6-(4-{1-[(2-Chlorophenyl)methyl]piperidin-4-yl}-1,4-diazepan-1-yl)-N-(pyridine-3-ylmethyl)pyridine-2-carboxamide] was 20 to 100 nM; that for `CC(C)N1CCC(NC2CCN(c3cccc(C(=O)Nc4ccncc4)n3)CC2)CC1` [Example 249, 6-(4-{[1-(Propan-2-yl)piperidin-4-yl]amino}piperidin-1-yl)-N-(pyridin-4-yl)pyridine-2-carboxamide] was 100 to 500 nM; that for `CCN1CCC(N2CCCN(c3cccc(C(=O)NCC4CC4)n3)CC2)CC1` [Example 60, N-(Cyclopropylmethyl)-6-[4-(1-ethylpiperidin-4-yl)-1,4-diazepan-1-yl]pyridine-2-carboxamide] was 500 to 1000 nM. The value for `[2H]C1([2H])CCN(C2CCN(C(C)C)CC2)CCN1c1cccc(C(=O)Nc2ccncc2)n1` [Example 175, 6-{7,7-Dihydrogenio-4-[1-(propan-2-yl)piperidin-4-yl]-1,4-diazepan-1-yl}-N-(pyridine-4-yl)pyridine-2-carboxamide] was < 20 nM; that for `O=C(NCC1CC1)c1cccc(N2CCCN(C3CCN([C@H]4CCc5ccccc54)CC3)CC2)n1` [Example 77, N-(Cyclopropylmethyl)-6-(4-{1-[(1S)-2,3-dihydro-1H-inden-1-yl]piperidin-4-yl}-1,4-diazepan-1-yl)pyridine-2-carboxamide] was 20 to 100 nM. Regarding `CC(C)N1CCC(N2CCCN(c3cccc(-c4nc5ccccc5[nH]4)n3)CC2)CC1` [Example 141, 2-(6-{4-[1-(Propan-2-yl)piperidin-4-yl]-1,4-diazepan-1-yl}pyridine-2-yl)-1H-1,3-benzodiazole], the Ki is < 20 nM. The value for `CC(CC(F)(F)F)N1CCC(N2CCCN(c3cccc(C(=O)NCc4cccnc4)n3)CC2)CC1` (stereo not drawn) [Example 90, N-(Pyridin-3-ylmethyl)-6-{4-[1-(4,4,4-trifluorobutan-2-yl)piperidin-4-yl]-1,4-diazepan-1-yl}pyridine-2-carboxamide] was 20 to 100 nM; that for `COc1ccc(NC(=O)c2cccc(N3CCCN(C4CCN(C(C)C)CC4)CC3)n2)cc1` [Example 26, N-(4-Methoxyphenyl)-6-{4-[1-(propan-2-yl)piperidin-4-yl]-1,4-diazepan-1-yl}pyridine-2-carboxamide] was 20 to 100 nM; that for `CC(C)N1CCC(N2CCCN(c3cccc(-c4nc5ccccc5s4)n3)CC2)CC1` [Example 151, 2-(6-{4-[1-(Propan-2-yl)piperidin-4-yl]-1,4-diazepan-1-yl}pyridine-2-yl)-1,3-benzothiazole] was 100 to 500 nM. With `O=C(NCC1CCOCC1)c1cccc(N2CCCN(C3CCN(Cc4ccccc4Cl)CC3)CC2)n1` [Example 47, 6-(4-{1-[(2-Chlorophenyl)methyl]piperidin-4-yl}-1,4-diazepan-1-yl)-N-(oxan-4-ylmethyl)pyridine-2-carboxamide], the Ki is < 20 nM. The value for `c1cc(NCCNCC2CCN(C3CCCC3)C2)nc(-c2ncc(C3CC3)[nH]2)c1` (stereo not drawn) [Example 229, [(1-Cyclopentylpyrrolidin-3-yl)methyl](2-{[6-(5-cyclopropyl-1H-imidazol-2-yl)pyridin-2-yl]amino}ethyl)amine] was 100 to 500 nM; that for `COCCNC(=O)c1cccc(N2CCCN(C3CCN(C(C)C)CC3)CC2)n1` [Example 14, N-(2-Methoxyethyl)-6-{4-[1-(propan-2-yl)piperidin-4-yl]-1,4-diazepan-1-yl}pyridine-2-carboxamide] was 20 to 100 nM; that for `CC(C)N1CCC(N2CCCN(c3cccc(C(=O)NCCCn4ccnc4)n3)CC2)CC1` [Example 3, N-[3-(1H-Imidazol-1-yl)propyl]-6-{4-[1-(propan-2-yl)piperidin-4-yl]-1,4-diazepan-1-yl}pyridine-2-carboxamide] was 100 to 500 nM. The value for `CC(C)(C)C1CCC(N2CCCN(c3cccc(C(=O)NCc4cccnc4)n3)CC2)CC1` (stereo not drawn) [Example 256, 6-[4-(4-tert-Butylcyclohexyl)-1,4-diazepan-1-yl]-N-(pyridin-3-ylmethyl)pyridine-2-carboxamide] was 20 to 100 nM. The value for `O=C(NCC1CC1)c1cccc(N2CCCN(C3CCN(C(CF)CF)CC3)CC2)n1` [Example 59, N-(Cyclopropylmethyl)-6-{4-[1-(1,3-difluoropropan-2-yl)piperidin-4-yl]-1,4-diazepan-1-yl}pyridine-2-carboxamide] was 100 to 500 nM; that for `COc1ccc2nc(-c3cccc(N4CCCN(C5CCN(C(C)C)CC5)CC4)n3)[nH]c2c1` [Example 150, 6-Methoxy-2-(6-{4-[1-(propan-2-yl)piperidin-4-yl]-1,4-diazepan-1-yl}pyridine-2-yl)-1H-1,3-benzodiazole] was 20 to 100 nM; that for `CC(C)N1CCC(N2CCCN(c3cccc(C(=O)NCC(F)F)n3)CC2)CC1` [Example 9, N-(2,2-Difluoroethyl)-6-{4-[1-(propan-2-yl)piperidin-4-yl]-1,4-diazepan-1-yl}pyridine-2-carboxamide] was 100 to 500 nM. As for `O=C(Nc1ccncc1)c1cccc(N2CCCN(Cc3ccc(F)cc3Cl)CC2)n1` [Example 251, 6-{4-[(2-Chloro-4-fluorophenyl)methyl]-1,4-diazepan-1-yl}-N-(pyridin-4-yl)pyridine-2-carboxamide], the Ki lay in the range of 100 to 500 nM. The value for `CC(C)N1CCC(N2CCCN(c3cccc(-c4nc(-c5ccccc5)no4)n3)CC2)CC1` [Example 170, 1-[6-(3-Phenyl-1,2,4-oxadiazol-5-yl)pyridin-2-yl]-4-[1-(propan-2-yl)piperidin-4-yl]-1,4-diazepane] was 100 to 500 nM. The value for `CCCCNC(=O)c1cccc(N2CCCN(C3CCN([C@@H](C)C(F)(F)F)CC3)CC2)n1` [Example 93, N-Butyl-6-(4-{1-[(2S)-1,1,1-trifluoropropan-2-yl]piperidin-4-yl}-1,4-diazepan-1-yl)pyridine-2-carboxamide] was 20 to 100 nM. With `CC(C)N1CCC(N2CCCN(c3cccc(C(=O)NCCO)n3)CC2)CC1` [Example 12, N-(2-Hydroxyethyl)-6-{4-[1-(propan-2-yl)piperidin-4-yl]-1,4-diazepan-1-yl}pyridine-2-carboxamide], the Ki was in the range of 100 to 500 nM. The value for `O=C(NCC1CC1)c1cccc(N2CCCN(CCCN3CCC(F)(F)C3)CC2)n1` [Example 253, N-(Cyclopropylmethyl)-6-{4-[3-(3,3-difluoropyrrolidin-1-yl)propyl]-1,4-diazepan-1-yl}pyridine-2-carboxamide] was 500 to 1000 nM; that for `CCCNC(=O)c1cccc(N2CCCN(C3CCN(C(C)C)CC3)CC2)n1` [Example 5, 6-{4-[1-(Propan-2-yl)piperidin-4-yl]-1,4-diazepan-1-yl}-N-propylpyridine-2-carboxamide] was 20 to 100 nM. The value for `c1ccc2c(c1)CCC2N1CCC(N2CCCN(c3nccs3)CC2)CC1` (stereo not drawn) [Example 126, 1-[1-(2,3-Dihydro-1H-inden-1-yl)piperidin-4-yl]-4-(1,3-thiazol-2-yl)-1,4-diazepane] was 500 to 1000 nM; that for `O=C(NCC1CC1)c1cccc(N2CCCN(C3CCN(Cc4ccccc4)CC3)CC2)n1` [Example 129, 6-[4-(1-Benzylpiperidin-4-yl)-1,4-diazepan-1-yl]-N-(cyclopropylmethyl)pyridine-2-carboxamide] was 500 to 1000 nM; that for `O=C(NC1CCOCC1)c1cccc(N2CCCN(C3CCN(Cc4ccccc4Cl)CC3)CC2)n1` [Example 52, 6-(4-{1-[(2-Chlorophenyl)methyl]piperidin-4-yl}-1,4-diazepan-1-yl)-N-(oxan-4-yl)pyridine-2-carboxamide] was 20 to 100 nM.

For `CC(C)N1CC[C@@H](N2CCCN(c3cccc(C(=O)NCC4CC4)n3)CC2)[C@H](O)C1` [Example 216, N-(Cyclopropylmethyl)-6-{4-[(3R)-3-hydroxy-1-(propan-2-yl)piperidin-4-yl]-1,4-diazepan-1-yl}pyridine-2-carboxamide], the Ki fell in the range of 100 to 500 nM. The value for `[2H]C1([2H])CCN(C2CCN(Cc3ccccc3Cl)CC2)CCN1c1cccc(C(=O)Nc2ccncc2)n1` [Example 180, 6-(4-{1-[(2-Chlorophenyl)methyl]piperidin-4-yl}-7,7-dihydrogenio-1,4-diazepan-1-yl)-N-(pyridin-4-yl)pyridine-2-carboxamide] was < 20 nM; that for `CCc1nc(-c2cccc(N3CCCN(C4CCN(C(C)C)CC4)CC3)n2)[nH]c1C1CC1` [Example 122, 1-[6-(4-Cyclopropyl-5-ethyl-1H-imidazol-2-yl)pyridine-2-yl]-4-[1-(propan-2-yl)piperidin-4-yl]-1,4-diazepane] was < 20 nM.

For the origin of these results see US10995091B2 (Proximagen, LLC, priority 2010, dated 2021).
